{
  "source": "patent US20250353898A1",
  "about": "“SERPIN PEPTIDE DERIVATIVES AND METHODS OF USING THE SAME” (priority 2022, published 2025)",
  "key": {"[1]": {"biological_target": "T1, TMPRSS2 (Homo sapiens, UniProt O15393)", "T1 construct": "expressed in transfected cells", "T1 sequence (O15393 whole entry)": "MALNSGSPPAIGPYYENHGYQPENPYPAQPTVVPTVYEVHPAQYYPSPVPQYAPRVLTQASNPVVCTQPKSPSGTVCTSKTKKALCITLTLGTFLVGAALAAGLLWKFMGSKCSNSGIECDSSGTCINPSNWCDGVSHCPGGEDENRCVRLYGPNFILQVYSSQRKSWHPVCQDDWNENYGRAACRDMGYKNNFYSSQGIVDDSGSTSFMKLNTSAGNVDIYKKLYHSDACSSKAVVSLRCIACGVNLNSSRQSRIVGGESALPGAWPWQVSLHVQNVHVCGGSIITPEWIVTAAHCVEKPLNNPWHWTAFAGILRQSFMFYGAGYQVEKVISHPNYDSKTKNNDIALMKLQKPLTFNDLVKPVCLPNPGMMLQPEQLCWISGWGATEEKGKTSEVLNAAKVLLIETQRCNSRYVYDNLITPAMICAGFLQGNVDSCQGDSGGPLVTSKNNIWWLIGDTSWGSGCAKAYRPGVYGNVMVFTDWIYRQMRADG", "experiment": "cell-based", "conditions": "overexpressing cell system; read-out: IC50 against TMPRSS2 (converted)"}, "[2]": {"tested_on": "IL-6", "experiment": "IL-6 secretion in IMG microglial cells after LPS (ELISA)", "assay_type": "cell-based", "conditions": "IMG microglial cells, LPS 100 ng/ml, 24 hours"}, "[3]": {"tested_on": "NFκB", "experiment": "NFκB reporter assay (SEAP) in THP1-XBlue-MD2-CD14 cells after LPS", "assay_type": "cell-based", "experimental": "The NFκB inducible Secreted Embryonic Alkaline Phosphatase (SEAP) was measured in the supernatant and read for absorbance.\n(§1) Various SERPIN peptide derivatives were screened in vitro for their ability to reduce TNFα and NFκB secretion via LRP-1 activation. The NFκB reporter cells (THP1-XBlue-MD2-CD14 cells) were treated with each peptide derivative at various concentrations, up to 100 μg/ml before being insulted with LPS (5 ng/ml) and incubated overnight. The NFκB inducible Secreted Embryonic Alkaline Phosphatase (SEAP) was measured in the supernatant and read for absorbance. IMG Microglial cells were treated with each peptide derivative at various concentrations, up to 100 μg/ml before LPS (100 ng/ml) stimulation for 24 hours. An ELISA was used to measure TNFα in the supernatant ([…])."}, "[4]": {"tested_on": "TNFα", "experiment": "TNFα secretion in IMG microglial cells after LPS (ELISA)", "assay_type": "cell-based", "conditions": "FIG. 6A/7, up to 50 μg/mL, LPS 100 ng/ml 24 hours; versus SP163M, SA7", "experimental": "In the NFκB reporter cells, the NFκB inducible Secreted Embryonic Alkaline Phosphatase (SEAP) was measured in the supernatant. TNFα secretion in the supernatant was measured via ELISA.\nas §1"}},
  "note": "Positions of bridges follow the written chain, without caps; N, C: chain ends. Non-standard residues stand in square brackets, D forms with d. Residues, ends and D or L forms follow the SMILES beside them. Nle = CCCC[C@H](N)C(=O)O",
  "data": [
    {"compound": "CCCC[C@@H]1NC(=O)[C@H](CC(C)C)NC(=O)[C@H](Cc2ccccc2)NC(=O)[C@H](C(C)C)NC(=O)[C@H](Cc2ccccc2)NC(=O)[C@@H]2CCCN2C(=O)[C@@H](NC(=O)[C@H](CCCNC(=N)N)NC(=O)[C@H](CCCNC(=N)N)NC(=O)[C@H](CCCNC(=N)N)NC(C)=O)CSSC[C@@H](C(=O)O)NC1=O", "note": "[SA7] (Ac-RRRCPFVFL[Nle]C-OH; disulfide 4-11)", "values": [
      {"measurement": "IC50", "setting": "[1]", "result": 57.2, "unit": "nM"}
    ]},
    {"compound": "Ac- RRRKFT[Nal]]LD (cyclic) [Peptide A3-7]", "values": [
      {"measurement": "EC50 IL-6", "setting": "[2]", "result": 3.651, "unit": "µg/mL"},
      {"measurement": "EC50 NFκB", "setting": "[3]; NFκB reporter cells, LPS 5 ng/ml", "result": 22.41, "unit": "µg/mL"}
    ]},
    {"compound": "HN-RRRFVFLAD (cyclic) (not fully specified; cyclised or stapled) [Peptide A2-3]", "values": [
      {"measurement": "activity in reducing TNFα", "setting": "[4]", "result": "superior activities in reducing TNFα"},
      {"measurement": "activity in reducing NFκB activation", "setting": "[3]; FIG. 6B/7, up to 50 μg/mL, LPS 5 ng/ml 24 hours, versus SP163M, SA7", "result": "superior activities"}
    ]}
  ]
}
